Test results taken from patent US11918691B2, “Local delivery of antineoplastic particles in combination with systemic delivery of immunotherapeutic agents for the treatment of cancer” (CRITITECH, INC., priority 2017, dated 2024).

What was measured:
[1] = test system: human renal cell adenocarcinoma (786-0 cell line); assay: Rat xenograft model of human renal cell adenocarcinoma: tumor volume, body weight, observations; format: in vivo, Sprague-Dawley Rag2; Il2rg null (SRG) rat; settings: IV, 3 weekly cycles
[2] = test system: human renal cell adenocarcinoma (786-0 cell line); assay: Rat xenograft model of human renal cell adenocarcinoma: histology and immunohistochemistry of residual tumors; format: in vivo, Sprague-Dawley Rag2; Il2rg null (SRG) rat
Experimental: Microscopic Examination: Tissues fixed with 10% NBF were embedded in paraffin. Each tumor was cut into 2-3 pieces and embedded and sectioned together.
The lymphohistiocytic infiltrate density based on assessment of […] and immunohistochemical staining with CD11b, graded semi quantitatively is shown in Table 31.
A review was conducted on the morphologic and immunohistochemical features of a subset of 14 female rats from the renal cell carcinoma study aimed to assess the efficacy of intratumoral NanoDoce® (the total study contained 30 animals). […] The NanoDoce® group was separated into three groups based on the number of administered cycles: group 1 (1 cycle; 3 animals), group 2 (2 cycles; 3 animals), and group 3 (3 cycles; 2 animals).

[3] = test system: UM-UC-3 bladder cancer cell line (ATCC-CRL-1749) tumors; assay: Human bladder cancer (UM-UC-3) mouse xenograft study: tumor volume, body weight, histology; format: in vivo, Hsd:Athymic Nude-Foxn1nu nude mice
Experimental: Tumor volume was determined with calipers. […] Animals were weighed 2×/week.
At day 18 after tumor implant, when average tumor size was between 50-325 mm^3, animals were sorted into five groups with equal average tumor sizes and were treated as shown in Table 25 below.
For IT administration (Vehicle/NANODOCE®), injections (using 27 G, ½″ needle) were administered at three sites within the tumor (total calculated injection volume based on 40 mg/mL NANODOCE® stock and 25 g mouse=63 μL; split evenly across the three injection sites) to maximize distribution of the test formulation throughout the tumor. The second treatments (2nd cycle) occurred 7 days following first treatment (1st cycle) and third treatments (3rd cycle) occurred 14 days following the first treatment. The docetaxel solution IV was administered via the tail vein.
The test formulations were prepared as follows: • Vehicle (Control): Diluted 1 ml of the 1% Polysorbate 80/8% Ethanol in normal saline (0.9% Sodium Chloride for Injection) reconstitution solution with 1.5 mL of normal saline (0.9% Sodium Chloride for Injection, USP). The final concentration of polysorbate 80 was 0.4% and the final concentration of ethanol was 3.2% in the Vehicle. • NANODOCE® Suspension: Added 1 ml of the 1% Polysorbate 80/8% Ethanol in normal saline (0.9% Sodium Chloride for Injection) reconstitution solution into the vial of NANODOCE® particles powder (100 mg/60 cc vial). The mean particle size (number) of the NANODOCE® particles powder was 1.0 micron. Vigorously hand shook the vial with inversions for 1 minute. […] Vortexed to mix.

[4] = Rat xenograft model of human renal cell adenocarcinoma: docetaxel concentration in tumor tissue, LC-MS/MS; format: in vivo, Sprague-Dawley Rag2; Il2rg null (SRG) rat; settings: 38 days following the last of three weekly cycles IV (5-[…]); LOQ 1.00 ng/g
Experimental: A calibration curve, prepared in rat control tumor tissue homogenate, was analyzed at the beginning and the end of each analytical run. Two sets of quality control (QC) samples were prepared at four concentration levels (low, mid-1, mid-2 and high) and were used to ensure reliability of the assay.

| animals evaluated with a detectable docetaxel level in tumor tissue [4] | docetaxel level in tumor tissue [4] | SMILES | tumor growth compared to vehicle control [1] | histology (H&E) compared with vehicle control ([2]; IV 3 cycles, female rat) | Number of animals with residual viable tumor >10 mm (maximum cross-sectional dimension of viable carcinoma on slide) ([2]; IV docetaxel QWX3, 2 animals evaluated) | residual viable carcinoma nodule, maximum dimension on the slide ([2]; both IV docetaxel animals) | morphologic and immunohistochemical appearance ([2]; two IV docetaxel cases (3 cycles)) | histology general observations (H&E) ([3]; Docetaxel Solution IV 3 cycles) | initial animal weight loss compared with NanoDoce IT 1, 2 and 3 cycles ([3]; IV 3 cycles) | signs of peripheral neuropathy compared with NanoDoce IT 3 cycles ([3]; IV 3 cycles) | treatment effect relative to initial tumor size ([3]; IV 3 cycles) | tumor volumes over time ([3]; IV 3 cycles (weekly), 61 days) | Number of animals with <5% of tissue showing necrosis ([2]; IV docetaxel, 2 animals) | Number of animals with Mild lymphohistiocytic infiltrate density (H&E and CD11b IHC, semi quantitative) ([2]; IV docetaxel, 2 animals) |
| --- | --- | --- | --- | --- | --- | --- | --- | --- | --- | --- | --- | --- | --- | --- |
| one of four | 21.8 ng/g | CC(=O)OC12CO[C@@H]1C[C@H](O)[C@@]1(C)C(=O)[C@H](O)C3=C(C)[C@@H](OC(=O)[C@H](O)[C@@H](NC(=O)OC(C)(C)C)c4ccccc4)C[C@@](O)([C@@H](OC(=O)c4ccccc4)[C@H]21)C3(C)C (some centres unmarked) [Docetaxel, docetaxel] | partial tumor growth inhibition | no difference | 2 | greater than 10 mm | identical morphologic and immunohistochemical appearance to that seen in the control and IT vehicle groups | many viable appearing tumor masses with some macrophage and occasional lymphocytic response along with some tumor necrosis | generally greater | greater signs of peripheral neuropathy | somewhat effective at treating small tumors, but not very effective in treating large tumors | decreased initially for dosages of NanoDoce® IT 1 cycle and Docetaxel IV 3 cycles, but subsequently increased |  |  |
|  |  | CC(=O)O[C@@]12CO[C@@H]1C[C@H](O)[C@@]1(C)C(=O)[C@H](O)C3=C(C)[C@@H](OC(=O)[C@H](O)[C@@H](NC(=O)OC(C)(C)C)c4ccccc4)C[C@@](O)([C@@H](OC(=O)c4ccccc4)[C@H]21)C3(C)C [Doce] |  |  |  |  |  |  |  |  |  |  | 2 | 2 |
